Results taken from PubChem BioAssay AID651581 (Sanford-Burnham Center for Chemical Genomics, 2012).
The source made the active and inactive calls. How the calls were made is not given here.

Key:
[1] = molecular target: Hypoxia-inducible factor 1-alpha (Homo sapiens) (UniProt Q16665); assay: potency against HIF reporters across cell lines – luminescence, panel, selectivity assay for HIF-2a inhibitor project, dose response (AID 651581); conditions: human cell HIF reporter, HIF-1a
[2] = molecular target: Endothelial PAS domain-containing protein 1 (Homo sapiens) (UniProt Q99814); assay: as above; conditions: human cell HIF reporter

Sequence of Hypoxia-inducible factor 1-alpha (Homo sapiens) (Q16665 whole entry, looked up, the tested form may be a part): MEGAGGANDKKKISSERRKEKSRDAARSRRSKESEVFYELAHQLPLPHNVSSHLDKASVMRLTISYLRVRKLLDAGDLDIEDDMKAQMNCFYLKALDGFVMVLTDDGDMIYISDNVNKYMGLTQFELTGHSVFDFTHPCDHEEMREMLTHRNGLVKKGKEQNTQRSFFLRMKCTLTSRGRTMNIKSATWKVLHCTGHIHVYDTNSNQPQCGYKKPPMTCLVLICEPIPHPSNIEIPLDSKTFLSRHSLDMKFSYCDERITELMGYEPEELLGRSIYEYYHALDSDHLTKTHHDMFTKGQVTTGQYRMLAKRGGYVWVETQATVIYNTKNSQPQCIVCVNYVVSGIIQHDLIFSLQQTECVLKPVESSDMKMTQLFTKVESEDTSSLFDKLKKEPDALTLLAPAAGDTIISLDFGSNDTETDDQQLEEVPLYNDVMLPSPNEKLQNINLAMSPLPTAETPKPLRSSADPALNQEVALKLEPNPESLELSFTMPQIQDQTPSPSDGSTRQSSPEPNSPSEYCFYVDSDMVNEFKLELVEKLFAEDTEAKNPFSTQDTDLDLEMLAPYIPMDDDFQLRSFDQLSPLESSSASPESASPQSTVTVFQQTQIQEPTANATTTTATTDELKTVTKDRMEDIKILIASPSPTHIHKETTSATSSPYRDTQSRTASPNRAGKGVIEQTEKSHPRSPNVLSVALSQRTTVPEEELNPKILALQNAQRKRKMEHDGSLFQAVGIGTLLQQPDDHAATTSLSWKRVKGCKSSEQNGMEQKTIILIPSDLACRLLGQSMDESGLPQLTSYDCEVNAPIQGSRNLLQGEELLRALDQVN

Compound | IC50 ([1]; mean of runs) | IC50 ([1]; run 1) | IC50 ([1]; run 2) | IC50 ([2]; HIF-2a PANC, run 1) | IC50 ([2]; HIF-2a PANC, run 2) | IC50 ([2]; HIF-2a, mean of runs) | IC50 ([2]; HIF-2a, run 1) | IC50 ([2]; HIF-2a, run 2) | IC50 ([2]; HIF-2a PANC, mean of runs)
C/C(=N/NC(=O)c1cc(C2CC2)[nH]n1)c1cccs1 | inactive | 24.8 µM | 21.7 µM | > 99 µM | < 30 µM | < 30 µM (inactive) | < 30 µM | < 30 µM | 
COC(=O)c1ccc(C(=O)OC)c(-n2c(=O)c3ccccc3c3ccccc3c2=O)c1 | inactive | 38.2 µM | 42.4 µM | > 99 µM | > 99 µM | inactive | 25.7 µM | 25.2 µM | > 99 µM (inactive)
C(=NNc1ccc2ccccc2n1)c1ccccn1 | 23.5 µM | 22 µM | 24.9 µM | 44.8 µM | 51.1 µM | 5.57 µM | 5.49 µM | 5.65 µM | inactive
Cc1c(CCC(=O)N2CCC[C@H]2C(=O)O)c(=O)oc2cc3oc4c(c3cc12)CCCC4 | inactive | 0.824 µM | 1.53 µM | 1.11 µM | 1.12 µM | 0.512 µM | 0.451 µM | 0.574 µM | 1.12 µM
O=C(Nc1ccc(N2CCOCC2)cc1)c1cnccn1 | inactive | 14.5 µM | 21.4 µM | 31.5 µM | 33.2 µM | 9.42 µM | 9.5 µM | 9.33 µM | inactive
N=c1nc(SCCC(=O)O)ss1 | inactive | 7.84 µM | 14.4 µM | 30.8 µM | 39.5 µM | 6.38 µM | 6.36 µM | 6.39 µM | inactive
Cc1nc2cc(-c3ccccc3)nn2c(C)c1CCC(=O)N1CCN(c2ccccc2)CC1 | 8.15 µM | 8.3 µM | 7.99 µM | 1.41 µM | 1.77 µM | 1.05 µM | 0.978 µM | 1.13 µM | 1.59 µM
COc1ccc(OCc2cccc(C(=O)Nc3cc(C)on3)c2)cc1 |  | > 99 µM | > 99 µM | > 99 µM | < 30 µM | < 30 µM (inactive) | < 30 µM | < 30 µM | 
Cc1ccoc1C(=O)Nc1ccc(CC(=O)O)cc1 |  | > 99 µM | > 99 µM | 0.895 µM | 0.698 µM | 0.374 µM | 0.366 µM | 0.382 µM | 0.796 µM
CC(=O)Nc1ccc(NC(=O)c2c([N+](=O)[O-])c(C(C)(C)C)nn2C)cc1 | inactive | 9.31 µM | 22.8 µM | 11.2 µM | 10.8 µM | inactive | 10.8 µM | 11.6 µM | 11 µM
Cc1csc(NC(=O)CCc2c(C)nc3cc(-c4ccc(Cl)cc4)nn3c2C)n1 |  | 0.486 µM | < 10 µM | < 0.19 µM | 0.308 µM |  | < 1 µM | 0.344 µM | 
CCOC(=O)Cc1csc(NC(=S)NC(=O)c2ccccc2)n1 | 22.1 µM | 23.3 µM | 20.9 µM | 41 µM | < 10 µM | 3.69 µM | 3.72 µM | 3.66 µM | 
COC(=O)Cc1ccc(NC(=O)c2ccc(C(C)(C)C)cc2)cc1 | < 10 µM | < 10 µM | < 10 µM | < 1 µM | < 3 µM | 0.243 µM | 0.246 µM | 0.241 µM | < 1 µM (inactive)
S=C(c1ccc(-c2ccccc2)cc1)N1CCOCC1 | inactive | 1.48 µM | 2.53 µM | 2.51 µM | 3.07 µM | 1.06 µM | 0.98 µM | 1.15 µM | 2.79 µM
CCOC(=O)c1c(C)nn(-c2ccc(NC(=O)c3c(C)noc3C)cc2)c1C | inactive | 10.2 µM | 11.8 µM | 15.3 µM | 13.2 µM | 4.26 µM | 4.25 µM | 4.26 µM | inactive
CCOc1ccc(OCc2cccc(C(=O)N3CCOCC3)c2)cc1 |  | > 99 µM | > 99 µM | > 99 µM | > 99 µM |  | 7.59 µM | < 30 µM | > 99 µM (inactive)
CC(C)c1ccc(/C=N/Nc2ccc(C(=O)O)cc2)cc1 | 24.8 µM | 28 µM | 21.7 µM | < 3 µM | < 1 µM |  | 7.97 µM | < 0.19 µM | < 1 µM
N#Cc1c(NC(=O)CCCC(=O)O)sc2c1CCCCC2 |  | > 99 µM | > 99 µM | 0.379 µM | 0.455 µM |  | 51.8 µM | < 0.19 µM | 0.417 µM
CCOc1ccc(C(=O)Nc2cccc(C(=O)O)c2C)cc1Cl |  | > 30 µM | > 99 µM | 25 µM | 31.5 µM | inactive | 13.3 µM | 16.6 µM | 28.2 µM
Cc1nn(-c2ccccc2Cl)c(Cl)c1/C=N/Nc1cccc(C(=O)O)c1 |  | > 99 µM | > 99 µM | > 99 µM | > 99 µM | inactive | 23.5 µM | 24.2 µM | > 99 µM (inactive)
COC(=O)CSc1nnc(-c2sc3ccccc3c2Cl)o1 | inactive | 2.3 µM | 2.49 µM | 4.35 µM | 5.63 µM | 2.36 µM | 2.08 µM | 2.64 µM | 4.99 µM
NCCN1C(=O)S/C(=C\c2ccc3c(c2)OCO3)C1=O | 5.89 µM | 6.19 µM | 5.6 µM | 9.33 µM | 4.41 µM | 1.12 µM | 1.15 µM | 1.09 µM | inactive
CSC(SC)=C(C#N)C(=O)c1ccccc1 | 26.2 µM | 21.3 µM | 31.1 µM | > 99 µM | 77 µM | 6.18 µM | 6.56 µM | 5.8 µM | 
COc1ccc(OCc2cccc(C(=O)Nn3cc([N+](=O)[O-])cn3)c2)cc1 |  | 32.1 µM | < 30 µM | < 30 µM | 13.4 µM | inactive | 11.3 µM | 9.04 µM | 
Nc1ccc(-c2ncc(-c3ccccc3)o2)cc1 | 26.7 µM | 52.5 µM | 0.851 µM | 0.202 µM | 0.292 µM | < 0.3 µM | < 0.3 µM | < 1 µM | 0.247 µM
N#C/C(=C\c1ccccc1)C(=O)N(c1ccccn1)C1CCCCC1 | inactive | 25.8 µM | 24.7 µM | 98.1 µM | 71.2 µM | inactive | 14.9 µM | 13.7 µM | inactive
O=C(Nc1ccc(NC(=O)c2cccs2)cc1)c1ccc2c(c1)OCCO2 | > 99 µM (inactive) | > 99 µM | > 99 µM | 2.06 µM | 1.79 µM |  | 22 µM | > 99 µM | 1.93 µM
